The structures appear in SMILES notation.

The data set is described as follows: log P determination by HPLC (EEC Directive 79/831 Annex V.A8, gradient method). Format: physicochemical.
On to `CC(C)(C)c1nn2c(/C=C/C(=O)Nc3ccc(OC(F)(F)F)cc3)c(-c3ccccc3Cl)nc2s1` [Example 0812], for which the “Physical data: logP” value turned out to be 5.13.
In the case of `CC(C)(C)c1nn2c(/C=C/C(=O)NCC(F)(F)C(F)(F)F)c(-c3ccccc3Cl)nc2s1` [Example 0814], the “Physical data: logP” value amounted to 4.08.
The same measure for `CC(C)(C)c1nn2c(/C=C/C(=O)NCC(F)(F)C(F)(F)C(F)(F)F)c(-c3ccccc3Cl)nc2s1` [Example 0815]: 4.48; for `COCc1nn2c(/C=C/C(=O)NCC(C)C)c(-c3ccccc3Cl)nc2s1` [Example 0816]: 2.71.
As for `COCc1nn2c(/C=C/C(=O)NC(C)C(F)(F)F)c(-c3ccccc3Cl)nc2s1` (centres unmarked) [Example 0817], the “Physical data: logP” value was 2.93.
Consider `COCc1nn2c(C=CC(=O)NC(C(C)C)C(F)(F)F)c(-c3ccccc3Cl)nc2s1` (centres unmarked) [Example 0818], for which the “Physical data: logP” value is given as 3.54.
Then `COCc1nn2c(/C=C/C(=O)NCC(C)(C)C)c(-c3ccccc3Cl)nc2s1` [Example 0819], with 3.05; and `COCc1nn2c(/C=C/C(=O)NCCC(C)C)c(-c3ccccc3Cl)nc2s1` [Example 0820], with 3.12.
For the compound `COCc1nn2c(/C=C/C(=O)NC3CCC(C(F)(F)F)CC3)c(-c3ccccc3Cl)nc2s1` (centres unmarked) [Example 0821], the “Physical data: logP” value came out at 3.4.
`COCc1nn2c(/C=C/C(=O)NCC(F)(F)F)c(-c3ccccc3Cl)nc2s1` [Example 0822]: the “Physical data: logP” value was 2.72.
Then `COCc1nn2c(/C=C/C(=O)NC(C)C)c(-c3ccccc3Cl)nc2s1` [Example 0824], with 2.4; and `CCC(C)NC(=O)/C=C/c1c(-c2ccccc2Cl)nc2sc(COC)nn12` (centres unmarked) [Example 0825], with 2.71; and `COCc1nn2c(/C=C/C(=O)NC3CC3)c(-c3ccccc3Cl)nc2s1` [Example 0829], with 2.2.
Then `COCc1nn2c(/C=C/C(=O)NC3CCC3)c(-c3ccccc3Cl)nc2s1` [Example 0830], with 2.59; and `COCc1nn2c(/C=C/C(=O)NC3CCCC3)c(-c3ccccc3Cl)nc2s1` [Example 0831], with 2.8; and `COCc1nn2c(/C=C/C(=O)NC3CCCCC3)c(-c3ccccc3Cl)nc2s1` [Example 0832], with 3.12.
As to `COCc1nn2c(/C=C/C(=O)Nc3ccc(Cl)cc3)c(-c3ccccc3Cl)nc2s1` [Example 0833], the “Physical data: logP” value worked out at 3.87.
Then `COCc1nn2c(/C=C/C(=O)Nc3ccc(OC(F)(F)F)cc3)c(-c3ccccc3Cl)nc2s1` [Example 0834], with 4; and `COCc1nn2c(/C=C/C(=O)Nc3ccc(C(F)(F)F)cc3)c(-c3ccccc3Cl)nc2s1` [Example 0835], with 3.99.
Then `COCc1nn2c(/C=C/C(=O)NCC(F)(F)C(F)(F)F)c(-c3ccccc3Cl)nc2s1` [Example 0836], with 3.17; and `COCc1nn2c(/C=C/C(=O)NCC(F)(F)C(F)(F)C(F)(F)F)c(-c3ccccc3Cl)nc2s1` [Example 0837], with 3.59; and `CC(C)CNC(=O)/C=C/c1c(-c2ccccc2Cl)nc2sc(-c3ccc(C(F)(F)F)cc3)nn12` [Example 0838], with 4.37.
Then `CC(NC(=O)/C=C/c1c(-c2ccccc2Cl)nc2sc(-c3ccc(C(F)(F)F)cc3)nn12)C(F)(F)F` (centres unmarked) [Example 0839], with 4.37; and `CC(C)(C)CNC(=O)/C=C/c1c(-c2ccccc2Cl)nc2sc(-c3ccc(C(F)(F)F)cc3)nn12` [Example 0841], with 4.68; and `CC(C)CCNC(=O)/C=C/c1c(-c2ccccc2Cl)nc2sc(-c3ccc(C(F)(F)F)cc3)nn12` [Example 0842], with 4.72.
As to `O=C(/C=C/c1c(-c2ccccc2Cl)nc2sc(-c3ccc(C(F)(F)F)cc3)nn12)NC1CCC(C(F)(F)F)CC1` (centres unmarked) [Example 0843], the “Physical data: logP” value is recorded as 4.86.
Then `O=C(/C=C/c1c(-c2ccccc2Cl)nc2sc(-c3ccc(C(F)(F)F)cc3)nn12)NCC(F)(F)F` [Example 0844], with 4.21; and `CC(C)NC(=O)/C=C/c1c(-c2ccccc2Cl)nc2sc(-c3ccc(C(F)(F)F)cc3)nn12` [Example 0846], with 3.96.
Consider `CCC(C)NC(=O)/C=C/c1c(-c2ccccc2Cl)nc2sc(-c3ccc(C(F)(F)F)cc3)nn12` (centres unmarked) [Example 0847], for which the “Physical data: logP” value was found to be 4.33.
Then `CC(NC(=O)/C=C/c1c(-c2ccccc2Cl)nc2sc(-c3ccc(C(F)(F)F)cc3)nn12)C(C)(C)C` (centres unmarked) [Example 0848], with 4.83; and `O=C(/C=C/c1c(-c2ccccc2Cl)nc2sc(-c3ccc(C(F)(F)F)cc3)nn12)NC1CC1` [Example 0851], with 3.75.
The same measure for `O=C(/C=C/c1c(-c2ccccc2Cl)nc2sc(-c3ccc(C(F)(F)F)cc3)nn12)NC1CCC1` [Example 0852]: 4.21; for `O=C(/C=C/c1c(-c2ccccc2Cl)nc2sc(-c3ccc(C(F)(F)F)cc3)nn12)NC1CCCC1` [Example 0853]: 4.44; for `O=C(/C=C/c1c(-c2ccccc2Cl)nc2sc(-c3ccc(C(F)(F)F)cc3)nn12)NC1CCCCC1` [Example 0854]: 4.76.
The same measure for `O=C(/C=C/c1c(-c2ccccc2Cl)nc2sc(-c3ccc(C(F)(F)F)cc3)nn12)NC1CCC(Cl)CC1` (centres unmarked) [Example 0855]: 5.27; for `O=C(/C=C/c1c(-c2ccccc2Cl)nc2sc(-c3ccc(C(F)(F)F)cc3)nn12)Nc1ccc(OC(F)(F)F)cc1` [Example 0856]: 5.47; for `O=C(/C=C/c1c(-c2ccccc2Cl)nc2sc(-c3ccc(C(F)(F)F)cc3)nn12)Nc1ccc(C(F)(F)F)cc1` [Example 0857]: 5.61.
In the case of `O=C(/C=C/c1c(-c2ccccc2Cl)nc2sc(-c3ccc(C(F)(F)F)cc3)nn12)NCC(F)(F)C(F)(F)F` [Example 0858], the “Physical data: logP” value came to 4.62.
Consider `O=C(/C=C/c1c(-c2ccccc2Cl)nc2sc(-c3ccc(C(F)(F)F)cc3)nn12)NCC(F)(F)C(F)(F)C(F)(F)F` [Example 0859], for which the “Physical data: logP” value turned out to be 5.
As to `Cc1cn2c(/C=C/C(=O)NCC(C)C)c(-c3ccccc3Cl)nc2s1` [Example 0860], the “Physical data: logP” value was 2.64.
Then `Cc1cn2c(/C=C/C(=O)NC(C)C(F)(F)F)c(-c3ccccc3Cl)nc2s1` (centres unmarked) [Example 0861], with 2.85; and `Cc1cn2c(C=CC(=O)NC(C(C)C)C(F)(F)F)c(-c3ccccc3Cl)nc2s1` (centres unmarked) [Example 0862], with 3.45; and `Cc1cn2c(/C=C/C(=O)NCC(C)(C)C)c(-c3ccccc3Cl)nc2s1` [Example 0863], with 2.89.
Turning to `Cc1cn2c(/C=C/C(=O)NCCC(C)C)c(-c3ccccc3Cl)nc2s1` [Example 0864], the “Physical data: logP” value is reported as 3.
Then `Cc1cn2c(/C=C/C(=O)NCC(F)(F)F)c(-c3ccccc3Cl)nc2s1` [Example 0866], with 2.64; and `Cc1cn2c(/C=C/C(=O)NC(C)C)c(-c3ccccc3Cl)nc2s1` [Example 0868], with 2.35.
Then `CCC(C)NC(=O)/C=C/c1c(-c2ccccc2Cl)nc2sc(C)cn12` (centres unmarked) [Example 0869], with 2.54.

Values taken from patent US20090118286A1, “Heterobicyclic Acrylamides” (Bayer Cropscience AG, priority 2005, published 2009).
